Experimental data as given in the NIST ThermoML archive (doi:10.1016/j.fluid.2016.02.011).
± gives the expanded uncertainty stated by the source.

Test: refractive index (Na D-line) (dimensionless); xn = mol fraction of the nth substance listed
Details: 100 kPa, Liquid, minimum deviations angle

Brc1ccccc1 [bromobenzene] + CCCCCC[n+]1ccn(C)c1.O=S(=O)([N-]S(=O)(=O)C(F)(F)F)C(F)(F)F
Details | refractive index
282.96 K, x2 = 0.126 | 1.5213 ± 0.0006
282.97 K, x2 = 0.014 | 1.5558 ± 0.0013
282.97 K, x2 = 0.099 | 1.5287 ± 0.0013
283 K, x2 = 0 | 1.5612 ± 0.0003
283 K, x2 = 0.012 | 1.5566 ± 0.0008
283.05 K, x2 = 0.203 | 1.5043 ± 0.0005
284.39 K, x2 = 0.098 | 1.5279 ± 0.0007
284.4 K, x2 = 0 | 1.5605 ± 0.0003
284.53 K, x2 = 0.016 | 1.5545 ± 0.0013
284.53 K, x2 = 0.094 | 1.5291 ± 0.0013
284.67 K, x2 = 0.012 | 1.5558 ± 0.0007
284.89 K, x2 = 0.126 | 1.5204 ± 0.0006
285.06 K, x2 = 0.203 | 1.5035 ± 0.0005
285.53 K, x2 = 0.098 | 1.5273 ± 0.0007
285.73 K, x2 = 0.017 | 1.5534 ± 0.0013
285.73 K, x2 = 0.091 | 1.5294 ± 0.0013
285.75 K, x2 = 0 | 1.5598 ± 0.0003
286.57 K, x2 = 0.012 | 1.5548 ± 0.0007
286.96 K, x2 = 0 | 1.5591 ± 0.0003
286.98 K, x2 = 0.126 | 1.5195 ± 0.0006
287.01 K, x2 = 0.203 | 1.5027 ± 0.0005
287.53 K, x2 = 0.019 | 1.5516 ± 0.0013
287.53 K, x2 = 0.086 | 1.53 ± 0.0013
287.59 K, x2 = 0.098 | 1.5264 ± 0.0007
287.98 K, x2 = 0 | 1.5585 ± 0.0003
288.27 K, x2 = 0.012 | 1.5539 ± 0.0007
288.42 K, x2 = 0.021 | 1.5506 ± 0.0013
288.42 K, x2 = 0.083 | 1.5304 ± 0.0013
288.67 K, x2 = 0.085 | 1.5295 ± 0.0007
288.99 K, x2 = 0 | 1.558 ± 0.0003
289.12 K, x2 = 0.126 | 1.5186 ± 0.0006
289.13 K, x2 = 0.022 | 1.5497 ± 0.0013
289.13 K, x2 = 0.08 | 1.5307 ± 0.0013
289.18 K, x2 = 0.203 | 1.5018 ± 0.0005
289.79 K, x2 = 0.085 | 1.529 ± 0.0006
289.81 K, x2 = 0.098 | 1.5254 ± 0.0006
289.82 K, x2 = 0.024 | 1.5487 ± 0.0014
289.82 K, x2 = 0.077 | 1.5313 ± 0.0013
290.11 K, x2 = 0 | 1.5574 ± 0.0003
290.23 K, x2 = 0.012 | 1.5529 ± 0.0008
290.33 K, x2 = 0.026 | 1.5478 ± 0.0013
290.33 K, x2 = 0.074 | 1.5318 ± 0.0014
290.81 K, x2 = 0.085 | 1.5286 ± 0.0006
290.82 K, x2 = 0.027 | 1.547 ± 0.0013
290.82 K, x2 = 0.072 | 1.5324 ± 0.0013
290.87 K, x2 = 0.026 | 1.5473 ± 0.0007
291.09 K, x2 = 0.203 | 1.501 ± 0.0005
291.14 K, x2 = 0.126 | 1.5177 ± 0.0005
291.16 K, x2 = 0.029 | 1.5462 ± 0.0013
291.16 K, x2 = 0.069 | 1.533 ± 0.0013
291.22 K, x2 = 0 | 1.5568 ± 0.0003
291.34 K, x2 = 0.012 | 1.5524 ± 0.0007
291.44 K, x2 = 0.03 | 1.5456 ± 0.0014
291.44 K, x2 = 0.067 | 1.5336 ± 0.0013
291.49 K, x2 = 0.075 | 1.5311 ± 0.0007
291.54 K, x2 = 0.031 | 1.5453 ± 0.0014
291.54 K, x2 = 0.066 | 1.5338 ± 0.0013
291.64 K, x2 = 0.031 | 1.5451 ± 0.0013
291.64 K, x2 = 0.065 | 1.5341 ± 0.0013
291.71 K, x2 = 0.098 | 1.5245 ± 0.0007
291.74 K, x2 = 0.032 | 1.5448 ± 0.0016
291.74 K, x2 = 0.064 | 1.5343 ± 0.0013
291.83 K, x2 = 0.033 | 1.5445 ± 0.0011
291.83 K, x2 = 0.063 | 1.5346 ± 0.0006
291.91 K, x2 = 0.033 | 1.5442 ± 0.0007
291.91 K, x2 = 0.062 | 1.5349 ± 0.0013
291.98 K, x2 = 0.034 | 1.5439 ± 0.002
291.98 K, x2 = 0.061 | 1.5351 ± 0.0015
292.03 K, x2 = 0.026 | 1.5467 ± 0.0007
292.04 K, x2 = 0.035 | 1.5436 ± 0.0024
292.04 K, x2 = 0.06 | 1.5354 ± 0.0015
292.08 K, x2 = 0.036 | 1.5433 ± 0.0012
292.08 K, x2 = 0.059 | 1.5356 ± 0.0009
292.14 K, x2 = 0.085 | 1.5279 ± 0.0006
292.15 K, x2 = 0.037 | 1.5428 ± 0.0011
292.15 K, x2 = 0.058 | 1.536 ± 0.0009
292.21 K, x2 = 0.038 | 1.5424 ± 0.0012
292.21 K, x2 = 0.056 | 1.5365 ± 0.0018
292.21 K, x2 = 0.075 | 1.5307 ± 0.0006
292.21 K, x2 = 0.126 | 1.5172 ± 0.0005
292.22 K, x2 = 0.203 | 1.5005 ± 0.0005
292.24 K, x2 = 0.039 | 1.5421 ± 0.0014
292.24 K, x2 = 0.055 | 1.5368 ± 0.0013
292.25 K, x2 = 0.039 | 1.5419 ± 0.001
292.25 K, x2 = 0.055 | 1.5369 ± 0.0011
292.26 K, x2 = 0.04 | 1.5416 ± 0.0013
292.26 K, x2 = 0.054 | 1.5371 ± 0.0014
292.27 K, x2 = 0.041 | 1.5414 ± 0.0014
292.27 K, x2 = 0.053 | 1.5373 ± 0.0013
292.29 K, x2 = 0.042 | 1.541 ± 0.0014
292.29 K, x2 = 0.052 | 1.5378 ± 0.0013
292.3 K, x2 = 0.012 | 1.5518 ± 0.0008
292.3 K, x2 = 0.043 | 1.5407 ± 0.0013
292.3 K, x2 = 0.051 | 1.538 ± 0.0013
292.32 K, x2 = 0 | 1.5563 ± 0.0003
293.01 K, x2 = 0.085 | 1.5276 ± 0.0007
293.1 K, x2 = 0.026 | 1.5461 ± 0.0007
293.22 K, x2 = 0.126 | 1.5167 ± 0.0005
293.22 K, x2 = 0.203 | 1.5001 ± 0.0005
293.32 K, x2 = 0 | 1.5557 ± 0.0003
293.35 K, x2 = 0.041 | 1.5407 ± 0.0008
293.35 K, x2 = 0.06 | 1.5348 ± 0.0006
293.39 K, x2 = 0.012 | 1.5513 ± 0.0008
293.5 K, x2 = 0.075 | 1.5301 ± 0.0006
293.74 K, x2 = 0.098 | 1.5236 ± 0.0007
293.93 K, x2 = 0.085 | 1.5271 ± 0.0007
294.22 K, x2 = 0.026 | 1.5456 ± 0.0007
294.45 K, x2 = 0.041 | 1.5401 ± 0.0007
294.49 K, x2 = 0.06 | 1.5343 ± 0.0007
294.54 K, x2 = 0.075 | 1.5296 ± 0.0007
295.1 K, x2 = 0.085 | 1.5266 ± 0.0006
295.1 K, x2 = 0.098 | 1.523 ± 0.0006
295.32 K, x2 = 0.026 | 1.545 ± 0.0008
295.66 K, x2 = 0.06 | 1.5337 ± 0.0007
295.82 K, x2 = 0.041 | 1.5394 ± 0.0007
295.84 K, x2 = 0.075 | 1.529 ± 0.0007
296.86 K, x2 = 0.06 | 1.5331 ± 0.0013
297.11 K, x2 = 0.041 | 1.5388 ± 0.0007
297.16 K, x2 = 0.075 | 1.5284 ± 0.0007
297.94 K, x2 = 0.06 | 1.5325 ± 0.0007
298.49 K, x2 = 0.041 | 1.5381 ± 0.0008
298.64 K, x2 = 0.026 | 1.5433 ± 0.0007
298.7 K, x2 = 0.075 | 1.5277 ± 0.0007
299.03 K, x2 = 0.06 | 1.532 ± 0.0007
299.63 K, x2 = 0.041 | 1.5375 ± 0.0007
299.98 K, x2 = 0.06 | 1.5315 ± 0.0007
300.84 K, x2 = 0.041 | 1.5369 ± 0.0008
